Data from US6620796B1, “Combinatorial library synthesis and pharmaceutically active compounds produced thereby” (Micrologix Biotech Inc., priority 1999, dated 2003).
Read-outs that look alike come from different tables or passages of the source.

Legend:
Assay type in all cases: cell-based
hepatits B virus (HBV) = experiment: Inhibition of HBV: extracellular virion HBV DNA in 2.2.15 cell cultures; details: for HBV Virion DNA Levels at indicated Drug Concentration: untreated control 114±16 pg/ml
Description: Briefly, confluent 2.2.15 cell cultures infected with an HBV strain were treated with 9 consecutive daily doses of four concentrations of test compound. Extracellular virion HBV DNA levels were followed 24 hours after the last treatment. The level of HBV virion DNA in the 24 control (untreated) cultures in these experiments was 114±16 pg/ml culture medium.

[1] = Toxicity analysis by neutral red dye uptake in 2.2.15 cells; details: human, neutral red dye uptake
Description: (§1) Cells for toxicity analyses were cultured and treated with four concentrations of the test compound. Uptake of neutral red dye was used to determine the relative level of toxicity 24 hours following the last treatment. The absorbance of internalized dye at 510 nm (A510 ) was used for the quantitative analysis. The percentage of dye uptake in the control (untreated) cell cultures was 100±3.

2.2.15 cells = experiment: as above
Description: as §1

[2] = HBV replication, 2.2.15 cells, 9 consecutive daily doses, virion DNA 24 hours after last treatment, read-out: EC50
[3] = HBV replication, 2.2.15 cells, 9 consecutive daily doses, virion DNA 24 hours after last treatment, read-out: EC90

Compound | HBV Virion DNA Levels at indicated Drug Concentration (hepatits B virus (HBV); 0.01 μM, 2.2.15 cells) | HBV Virion DNA Levels at indicated Drug Concentration (hepatits B virus (HBV); 0.1 μM, 2.2.15 cells) | HBV Virion DNA Levels at indicated Drug Concentration (hepatits B virus (HBV); 1.0 μM, 2.2.15 cells) | HBV Virion DNA Levels at indicated Drug Concentration (hepatits B virus (HBV); 10 μM, 2.2.15 cells) | EC50 (hepatits B virus (HBV); 24 h) | EC90 (hepatits B virus (HBV); 24 h) | Selectivity Index (CC50/EC90) (hepatits B virus (HBV); HBV replication, 2.2.15 cells) | CC50 [1] | Neutral Red Dye Uptake at Indicated Drug Concentration (2.2.15 cells; 10 μM) | Neutral Red Dye Uptake at Indicated Drug Concentration (2.2.15 cells; 30 μM) | Neutral Red Dye Uptake at Indicated Drug Concentration (2.2.15 cells; 100 μM) | Neutral Red Dye Uptake at Indicated Drug Concentration (2.2.15 cells; 300 μM) | EC50 (hepatits B virus (HBV); [2]) | EC90 (hepatits B virus (HBV); [3])
C=C(C)CC/C=C/COP(=O)(S)OC[C@H]1O[C@@H](n2cnc3c(N)ncnc32)C[C@@H]1O (stereo partly drawn) [Nucleoside W198-10] | 127 ± 10 pg/ml culture | 121 ± 10 pg/ml culture | 139 ± 10 pg/ml culture | 46 ± 2 pg/ml culture | 7.7 ± 0.9 µM | 24 ± 0.8 µM | >13 | > 300 µM | 100 ± 1 % of control | 102 ± 2 % of control | 99 ± 1 % of control | 98 ± 1 % of control |  | 
C/C=C(/COP(=O)(S)OC[C@H]1O[C@@H](n2cnc3c(N)ncnc32)C[C@@H]1O)c1ccccc1 (stereo partly drawn) [Nucleoside W198-21] | 137 ± 14 pg/ml culture | 121 ± 13 pg/ml culture | 117 ± 12 pg/ml culture | 35 ± 4 pg/ml culture |  |  | >16 | > 300 µM | 99 ± 3 % of control | 99 ± 1 % of control | 100 ± 1 % of control | 100 ± 2 % of control | 5.3 ± 0.6 µM | 19 ± 2.1 µM
Nc1ncnc2c1ncn2[C@H]1C[C@H](O)[C@@H](COP(=O)(S)OCc2ccc3ccccc3c2)O1 (stereo partly drawn) [Nucleoside W198-22] | 129 ± 13 pg/ml culture | 122 ± 13 pg/ml culture | 152 ± 11 pg/ml culture | 59 ± 2 pg/ml culture |  |  | >9.4 | > 300 µM | 99 ± 2 % of control | 101 ± 3 % of control | 102 ± 2 % of control | 103 ± 2 % of control | 10 ± 1.1 µM | 32 ± 3.2 µM
C=C(C)[C@@H]1CC=C(COP(=O)(S)OC[C@H]2O[C@@H](n3cnc4c(N)ncnc43)C[C@@H]2O)CC1 (stereo partly drawn) [Nucleoside W198-24] | 140 ± 15 pg/ml culture | 133 ± 12 pg/ml culture | 149 ± 25 pg/ml culture | 62 ± 3 pg/ml culture |  |  | >7.7 | > 300 µM | 100 ± 1 % of control | 102 ± 2 % of control | 103 ± 1 % of control | 102 ± 1 % of control | 12 ± 1.2 µM | 39 ± 4.1 µM
